Data as given in US5446065A, “Sulfonamides of phenylalkylamines or phenoxyalkylamines processes for their preparation and medicaments containing these compounds” (Boehringer Mannheim GmbH, priority 1990, dated 1995).

How the values were obtained:
[1] = tested on: pre-contracted isolated rat aortas; test: TX-antagonistic action: inhibition of contraction of the isolated rat aorta ring pre-contracted with U 46619; assay type: cell-based; settings: aorta rings precontracted with 0.3 μmol/l U 46619, cumulative addition, 37° C.
Protocol: 1. TX-antagonistic action on the isolated rat sorts ring pre-contracted with U 46619
The isolated rat sorts freed from surrounding connective tissue is cut up into equally wide rings and superinfused in a 10 ml organ bath with Krebs-Hanseleit buffer at 37° C. After about 45 min., equilibration time, the sorts rings are precontracted with 0.3 μmol/l U 46619, a stable analogue of the prostaglandin endoperoxide PGH2 (Upjohn & Co., Kalamazoo, USA). U 46619 was characterised as selective thromboxane mimetic (Coleman et al., Brit. J. Pharmacol. 68, 127P, 1980). As soon as a stable plateau is reached (after about 15 min.), the test substance is added cumulatively directly into the organ bath to the aorta ring, beginning with 10 nmol/l, until either an end concentration of 100 μmol/l is reached or the contraction is completely antagonised. There is calculated the particular percentage inhibition of the contraction by the test substance. From the concentration-action curves is determined the IC50, i.e. the half maximum inhibiting concentration.

[2] = tested on: U 46619-caused lung embolism; test: Prevention of the U 46619-caused lung embolism (survival); assay type: in vivo, male NMRI mice; settings: po, mouse, stomach probe, U 46619 injected 4 h later (800-1000 μg/kg, tail vein), read-out: survival rate of mouse 1 mg/kg after 4 h
Protocol: 2. Prevention of the U 46619-caused lung embolism
Male NMRI mice of about 25 g body weight are used. The test substance is suspended in 1% methyl cellulose solution and administered to the experimental animals by means of a stomach probe. The provocation test consists in that a dose lethal for the control animals (800-1000 μg/kg) of the thromboxane mimetic (U 46619 of the firm Upjohn) is rapidly injected into the tail vein. The period of the specific antagonistic action is tested in that the animals are pre-treated with 1 mg/kg of the various test substances and the injection of U 46619 takes place after 4 h. The survival rate indicates what percent of the animals used survive the injection of the thromboxane mimetic.

[3] = tested on: U46619-induced bronchospasm of the guinea pig; test: Inhibition of the U 46619-induced bronchospasm of the anaesthetised guinea pig; assay type: in vivo; settings: Cavia porcellus, iv, 10 min, test substance i.v., 10 μg/kg U 46619 i.v., AUC over 10 min, read-out: ID50 of U46619-induced bronchospasm of the guinea pig
Protocol: 3. Inhibition of the U 46619-induced bronchospasm of the anaesthetised guinea pig
Guinea pigs are anaesthetised with narcoren and provided with a jugular vein catheter and a tracheal canula. The animals are mechanically respirated with atmospheric air with 1 ml/100 g body weight. The tracheal canula is connected via a three-way stopcock with a Stathem pressure element which takes up the pressure resulting by the contraction of the smooth musculature in the trachea and passes on to a recorder via a measuring bridge. After achievement of a constant basal tonus, the animals receive 10 μg/kg U 46619 i.v. administered via the jugular vein catheter. The dose induces a rapidly increasing bronchospasm which, after about 10 minutes, again subsides and is very readily reproducable. After 15 minutes follows a second administration of 10 μg/kg U 46619, in the course of which, after 5 minutes, the test substance is given i.v. in various doses. After a further 15 minutes, the same dose of U 46619 is again injected. The areas under the curve over 10 min of the administration 1 and 3 are determined planimetrically on a Kontron-Videoplan unit and the bronchospasm after administration 3 calculated in percentage of the bronchospasm after administration 1. The ID50 of the test substance can be determined from the quotients.

Compound	IC50 [1]	responders at 1 mg/kg [2]	ED50 [3]
O=C(COc1cccc(CCNS(=O)(=O)c2ccc(Cl)cc2)c1)N1CCCCC1 [Ex. 1 d, 3-[2-(4-chlorophenylsulphonylamino)-ethyl]-phenoxyacetylpiperidide]	3400 nM	100%	0.5 mg/kg
O=C(COc1cccc(CCNS(=O)(=O)c2ccc(Cl)cc2)c1)NCCO [Ex. 1 f, 3-[2-(4-chlorophenylsulphonylamino)-ethyl]-phenoxyacetic acid (2-hydroxyethylamide)]	1600 nM	100%	0.02 mg/kg
O=C(COc1cccc(CCNS(=O)(=O)c2ccc(Cl)cc2)c1)N(CCO)CCO [Ex. 1 g, 3-[2-(4-chlorophenylsulphonylamino)-ethyl]-phenoxyacetic acid 2-[bis-(2-hydroxyethyl)-amide]]	1600 nM	100%	0.04 mg/kg
O=C(COc1ccc(CCNS(=O)(=O)c2ccc(Cl)cc2)cc1)Nc1cccnc1 [Ex. 1 r, 4-[2-(4-chlorophenylsulphonylamino)-ethyl]-phenoxyacetic acid (3-pyridyl)-amide]	1000 nM	90%	0.02 mg/kg
CCNC(=O)COc1cccc(CCNS(=O)(=O)c2ccc(Cl)cc2)c1 [Ex. 2 a, 3-[2-(4-chlorophenylsulphonylamino)-ethyl]-phenoxyacetic acid ethylamide]	1800 nM	100%	0.01 mg/kg
NCCCc1ccc(CCNS(=O)(=O)c2ccc(Cl)cc2)cc1 [Ex. 4 m, 1-[4-[2-(4-chlorophenylsulphonylamino)-ethyl]-phenyl]-3-aminopropane]	3000 nM	100%	0.05 mg/kg
NCCCCc1ccc(CCNS(=O)(=O)c2ccc(Cl)cc2)cc1 [Ex. 4 s, 1-[4-[2-(4-chlorophenylsulphonylamino)-ethyl]-phenyl]-4-aminobutane]	2600 nM	90%	0.1 mg/kg
NCCOc1cccc(CCNS(=O)(=O)c2ccc(Cl)cc2)c1 [Ex. 4, 1-[3-[2-(4-Chlorophenylsulphonylamino)-ethyl]-phenoxy]-2-aminoethane]	340 nM	100%	0.01 mg/kg
NCCc1ccc(CCNS(=O)(=O)c2ccc(Cl)cc2)cc1 [Ex. 5, 1-[4-[2-(4-Chlorophenylsulphonylamino)-ethyl]-phenyl]-2-aminoethane]	100 nM	100%	0.05 mg/kg
